Reference: patent US7053177B1, “Random peptides that bind to gastro-intestinal tract (GIT) transport receptors and related methods” (Cytogen Corporation, priority 1997, dated 2006)
Peptide text beside a SMILES is read from it. * marks the point of attachment. Dansyl = CN(C)c1cccc2c(S(=O)(=O)*)cccc12

Tested on: P100 membrane fraction of Caco-2 cells
Test: Dansylated peptide ELISA: relative binding of PAX2 and HAX42 peptides to P100 fractions (ratio to ZElan021)
Settings: ratio to ZElan021 = 1.00
Method: The peptides and proteins were analyzed by a dansylated peptide ELISA method in which 96 well plates were coated overnight at 4° C. with 100 μl/well coating protein (normally 100 μg/ml P100 membrane fraction) in 0.05M carbonate buffer pH9.6. Nonspecific binding was blocked using 200 μl/well, 2% Marvel/PBS for 2 hours at 37° C. prior to incubation with dansylated peptides. The plates were washed three times with PBS/0.05% Tween 20 and after each subsequent incubation step. […] A buffer blank control was included to ensure that background binding to plastic was not due to the antibodies used in the assay system. […] Plates were developed using 75 μl/well Bionostics TMB substrate and incubated for approximately 10 minutes. The developing reaction was stopped using Bionostics Red Stop solution (25 μl/well), and the optical density of the plates was read at 650 nm. […]

| SMILES | Binding value at 50 μg/ml (PAX2 peptides, first column) | Binding value at 20 μg/ml (PAX2 peptides, first column) | Binding value at 50 μg/ml (PAX2 peptides, second column) | Binding value at 20 μg/ml (PAX2 peptides, second column) | Binding value at 20 μg/ml (HAX42 peptides) | Binding value at 50 μg/ml (HAX42 peptides, first column) | Binding value at 50 μg/ml (HAX42 peptides, second column) |
| --- | --- | --- | --- | --- | --- | --- | --- |
| CC(C)C[C@H](NC(=O)[C@H](CCCNC(=N)N)NC(=O)[C@H](CCCNC(=N)N)NC(=O)[C@H](CC(N)=O)NC(=O)[C@H](Cc1c[nH]cn1)NC(=O)[C@H](CO)NC(=O)[C@H](CO)NC(=O)[C@H](Cc1c[nH]cn1)NC(=O)[C@H](CCCCN)NC(=O)[C@H](C)NC(=O)[C@H](CC(N)=O)NC(=O)[C@@H](NC(=O)[C@@H](N)CCCCNS(=O)(=O)c1cccc2c(N(C)C)cccc12)[C@@H](C)O)C(=O)N[C@@H](CCCNC(=N)N)C(=O)N[C@H](C(=O)N[C@@H](CCCNC(=N)N)C(=O)N[C@@H](CO)C(=O)N[C@@H](CCCNC(=N)N)C(=O)N1CCC[C@H]1C(=O)N[C@@H](CC(N)=O)C(N)=O)[C@@H](C)O [ZElan032] (H-K(Dansyl)TNAKHSSHNRRLRTRSRPN-NH2) | 0.95 | – | – | – | – | – | – |
| CC(C)C[C@H](NC(=O)[C@H](CCCNC(=N)N)NC(=O)[C@H](CCCNC(=N)N)NC(=O)[C@H](CC(N)=O)NC(=O)[C@H](Cc1c[nH]cn1)NC(=O)[C@H](CO)NC(=O)[C@H](CO)NC(=O)[C@H](Cc1c[nH]cn1)NC(=O)[C@H](CCCCN)NC(=O)[C@H](C)NC(=O)[C@H](CC(N)=O)NC(=O)[C@@H](NC(=O)[C@@H](N)CCCCNS(=O)(=O)c1cccc2c(N(C)C)cccc12)[C@@H](C)O)C(=O)N[C@@H](CCCNC(=N)N)C(=O)N[C@H](C(=O)N[C@@H](CCCNC(=N)N)C(N)=O)[C@@H](C)O [ZElan033] (H-K(Dansyl)TNAKHSSHNRRLRTR-NH2) | 0.80 | 0.35 | 0.66 | – | – | – | – |
| CC(C)C[C@H](NC(=O)[C@H](CCCNC(=N)N)NC(=O)[C@H](CCCNC(=N)N)NC(=O)[C@H](CC(N)=O)NC(=O)[C@H](Cc1c[nH]cn1)NC(=O)[C@H](CO)NC(=O)[C@H](CO)NC(=O)[C@@H](N)CCCCNS(=O)(=O)c1cccc2c(N(C)C)cccc12)C(=O)N[C@@H](CCCNC(=N)N)C(=O)N[C@H](C(=O)N[C@@H](CCCNC(=N)N)C(N)=O)[C@@H](C)O [ZElan035] (H-K(Dansyl)SSHNRRLRTR-NH2) | 0.81 | 0.12 | 0.77 | 0.43 | – | – | – |
| C[C@H](NC(=O)[C@H](CC(N)=O)NC(=O)[C@@H](NC(=O)[C@@H](N)CCCCNS(=O)(=O)c1cccc2c(N(C)C)cccc12)[C@@H](C)O)C(=O)N[C@@H](CCCCN)C(=O)N[C@@H](Cc1c[nH]cn1)C(=O)N[C@@H](CO)C(=O)N[C@@H](CO)C(=O)N[C@@H](Cc1c[nH]cn1)C(=O)N[C@@H](CC(N)=O)C(N)=O [ZElan055] (H-K(Dansyl)TNAKHSSHN-NH2) | 1.10 | 0.99 | 0.59 | 0.73 | – | – | – |
| CC(C)C[C@H](NC(=O)[C@H](CCCNC(=N)N)NC(=O)[C@H](CCCNC(=N)N)NC(=O)[C@@H](N)CCCCNS(=O)(=O)c1cccc2c(N(C)C)cccc12)C(=O)N[C@@H](CCCNC(=N)N)C(=O)N[C@H](C(=O)N[C@@H](CCCNC(=N)N)C(=O)N[C@@H](CO)C(=O)N[C@@H](CCCNC(=N)N)C(=O)N1CCC[C@H]1C(=O)N[C@@H](CC(N)=O)C(N)=O)[C@@H](C)O [ZElan056] (H-K(Dansyl)RRLRTRSRPN-NH2) | 0.21 | 0.00 | 0.21 | 0.16 | – | – | – |
| CC(C)C[C@H](NC(=O)[C@H](CCCNC(=N)N)NC(=O)[C@H](CCCNC(=N)N)NC(=O)[C@@H](N)CCCCNS(=O)(=O)c1cccc2c(N(C)C)cccc12)C(=O)N[C@@H](CCCNC(=N)N)C(=O)N[C@H](C(=O)N[C@@H](CCCNC(=N)N)C(=O)N[C@@H](CO)C(=O)N[C@@H](CCCNC(=N)N)C(N)=O)[C@@H](C)O [ZElan057] (H-K(Dansyl)RRLRTRSR-NH2) | 0.56 | 0.08 | 0.25 | – | – | – | – |
| CC(C)C[C@H](NC(=O)[C@H](CCCNC(=N)N)NC(=O)[C@H](CCCNC(=N)N)NC(=O)[C@@H](N)CCCCNS(=O)(=O)c1cccc2c(N(C)C)cccc12)C(=O)N[C@@H](CCCNC(=N)N)C(=O)N[C@H](C(=O)N[C@@H](CCCNC(=N)N)C(N)=O)[C@@H](C)O [ZElan058, H2N-K(dns)RRLRTR-CONH2] (H-K(Dansyl)RRLRTR-NH2) | 0.47 | 0.05 | 0.16 | – | – | – | – |
| CC[C@H](C)[C@H](NC(=O)[C@H](C)NC(=O)[C@H](CO)NC(=O)[C@@H]1CCCN1C(=O)[C@H](CCCNC(=N)N)NC(=O)[C@H](CCCNC(=N)N)NC(=O)[C@H](CCCNC(=N)N)NC(=O)[C@H](CC(N)=O)NC(=O)[C@H](Cc1ccccc1)NC(=O)[C@@H](NC(=O)[C@H](CCCCN)NC(=O)[C@H](CCCNC(=N)N)NC(=O)CNC(=O)[C@@H](NC(=O)[C@H](CO)NC(=O)[C@H](CC(N)=O)NC(=O)CNC(=O)[C@H](CC(N)=O)NC(=O)CNC(=O)[C@H](CS)NC(=O)[C@H](CS)NC(=O)[C@H](CC(N)=O)NC(=O)[C@H](Cc1ccc(O)cc1)NC(=O)[C@H](CC(=O)O)NC(=O)CNC(=O)[C@@H](N)CCCCNS(=O)(=O)c1cccc2c(N(C)C)cccc12)[C@@H](C)O)C(C)C)C(=O)N1CCC[C@H]1C(=O)N[C@H](C(N)=O)[C@@H](C)O [ZElan061] (H-K(Dansyl)GDYNCCGNGNSTGRKVFNRRRPSAIPT-NH2) | – | – | – | – | 0.20 | 0.60 | 0.38 |
| CC(C)C[C@H](NC(=O)[C@H](C)NC(=O)[C@H](Cc1c[nH]cn1)NC(=O)[C@H](CC(=O)O)NC(=O)[C@H](CO)NC(=O)[C@@H](N)CCCCNS(=O)(=O)c1cccc2c(N(C)C)cccc12)C(=O)NCC(=O)N[C@H](C(=O)N[C@@H](CC(N)=O)C(=O)N[C@@H](CC(C)C)C(=O)N[C@@H](CCCNC(=N)N)C(=O)N[C@@H](CO)C(=O)N[C@@H](CC(=O)O)C(=O)N[C@@H](CC(N)=O)C(=O)N[C@@H](C)C(=O)N[C@@H](CCCCN)C(=O)N[C@@H](CCC(=O)O)C(=O)N1CCC[C@H]1C(=O)NCC(N)=O)[C@@H](C)O [ZElan062] (H-K(Dansyl)SDHALGTNLRSDNAKEPG-NH2) | – | – | – | – | 0.11 | 0.42 | 0.34 |
| CC(C)[C@H](NC(=O)[C@H](CCCCN)NC(=O)[C@H](CCCNC(=N)N)NC(=O)[C@@H](N)CCCCNS(=O)(=O)c1cccc2c(N(C)C)cccc12)C(=O)N[C@@H](Cc1ccccc1)C(=O)N[C@@H](CC(N)=O)C(=O)N[C@@H](CCCNC(=N)N)C(=O)N[C@@H](CCCNC(=N)N)C(=O)N[C@@H](CCCNC(=N)N)C(=O)N1CCC[C@H]1C(=O)N[C@@H](CO)C(N)=O [ZElan065] (H-K(Dansyl)RKVFNRRRPS-NH2) | – | – | – | – | 0.00 | 0.54 | 0.30 |
| CN(C)c1cccc2c(S(=O)(=O)NCCCC[C@H](N)C(=O)N[C@@H](CC(N)=O)C(=O)N[C@@H](CCCNC(=N)N)C(=O)N[C@@H](CCCNC(=N)N)C(=O)N[C@@H](CCCNC(=N)N)C(=O)N3CCC[C@H]3C(=O)N[C@@H](CO)C(N)=O)cccc12 [ZElan067, H2N-K(dns)NRRRPS-CONH2] (H-K(Dansyl)NRRRPS-NH2) | – | – | – | – | 0.08 | 0.52 | 0.40 |
